Laboratory results taken from patent publication US20050222041A1, “Ncam binding compounds” (ENKAM Pharmaceuticals A/S, priority 2001, published 2005).
“And” between values parts separate entries of the source, which are not always exact repeats. Equal values may be shown once. Read-outs that look alike come from different tables or passages of the source. Ends that are not written are not given here.

Columns and labels:
hippocampal cells = experiment: Cell aggregation in primary hippocampal aggregate cultures; type: cell-based, rat; conditions: 24 h
Procedure: A variety of suitable compounds have been discussed above. To test the function of the NCAM binding molecule, the inventors have established a simple cell culture system (aggregate cell cultures) that permits a quantitative evaluation of the effect of various ligands. Hippocampal cells are provided from rat embryos. The cells are grown in a defined medium and dissociated cells are seeded in microtiter plates. After 24 h, the amount of aggregates are counted. Compounds to be tested are added to the cell suspension immediately before seeding of the cells in micro-wells. When NCAM binding compounds are present during the aggregation of cells, smaller, but more numerous cell aggregates are seen when quantified 24 h after seeding of the cells. The inhibiting effect of the ligands results in a blockage of the formation of large aggregates from many small aggregates as the adhesion properties of NCAM are blocked. Thus, small but more numerous cell aggregates are seen in the presence of active ligands. Such an effect is due to the presence of different compounds of the invention during the aggregation of cells. The system allows for the examination of disaggregation of the treated cells.
Dissociated hippocampal cells prepared from rat embryos gestational day 18 were seeded in microwell plates 50,000 cells in 15 μl of medium per well as previously described (Maar et al., 1997)(Rønn et al., 1999). All animals were handled in accordance with the national guidelines for animal welfare. Cells were grown in Neurobasal medium supplemented with B27, 20 mM HEPES, penicillin (100 U/ml), streptomycin (100 μg/ml) and 0.4% w/v bovine serum albumin. After 24 h in culture, the number of aggregates per well was determined. […] After 24 h, images of neurons were captured and analysed by means of computer-assisted microscopy as described (Rønn et al., 2000).
An important function of NCAM is mediation of cell adhesion. […] The effect of NBP10 on cell aggregation was only quantified at low concentrations of the peptide (FIG. 1CD). […] Under these conditions, the number of aggregates could not be quantified. […]

[1] = system: primary hippocampal neurons; experiment: Neurite outgrowth in dissociated cultures of primary hippocampal neurons on plastic; type: cell-based, rat; conditions: for concentration of maximal effect on neurite outgrowth: bell shaped dose-response
Procedure: Dissociated hippocampal cells prepared from rat embryos gestational day 18 were seeded in microwell plates 50,000 cells in 15 μl of medium per well as previously described (Maar et al., 1997)(Rønn et al., 1999). All animals were handled in accordance with the national guidelines for animal welfare. Cells were grown in Neurobasal medium supplemented with B27, 20 mM HEPES, penicillin (100 U/ml), streptomycin (100 μg/ml) and 0.4% w/v bovine serum albumin. After 24 h in culture, the number of aggregates per well was determined. For analysis of neurite outgrowth, 5,000 cells/well were seeded in 8 well LabTek Tissue Culture Chamber Slides with a growth surface of Permanox plastic. After 24 h, images of neurons were captured and analysed by means of computer-assisted microscopy as described (Rønn et al., 2000).
The effect of NBP10 in dissociated cultures of primary hippocampal neurons grown on a plastic substratum were examined.

[2] = system: NBP10-induced neurite outgrowth; experiment: Inhibition of NBP10d-induced neurite outgrowth by inhibitors of NCAM-dependent signal transduction; type: cell-based, rat
PC12E2 cells = experiment: Fura-2 calcium imaging in PC12E2 cells; type: cell-based; conditions: lower concentrations than 50 μM
Procedure: The PC12-E2 cell line was a generous gift from Dr. Klaus Seedorf, Hagedorn Research Institute, Denmark. Cells were grown in DMEM supplemented with 5% v/v FBS and 10% v/v horse serum (HS). For calcium imaging, PC12E2 cells were dislodged mechanically by tapping and seeded at a density of 5-30,000 cells/cm^2 in 4 or 8 well LabTek chambered cover-slides (NUNC) with a growth surface of plastic coated with fibronectin (10 μg/ml) and grown for 1 to 5 days. In some cases, neuronal differentiation was induced by changing the medium to DMEM supplemented with 1% v/v FBS, 1% v/v HS and NGF (50 ng/ml) or FGF-2 (10 ng/ml).
Cells were washed in HANK's solution comprising KCl (5.4 mM), NaCl (137 mM), NaHCO3 (2 mM), MgSO4 (0.8 mM), Na2HPO4 (0.27 mM), Glucose (5.6 mM), CaCl2 (1.25 mM), KH2PO4 (0.44 mM) and loaded with fura-2 acetomethyl ester (Fura-2 AM, 2 μM, Molecular Probes, Eugene, Oreg., USA) dissolved in Dimethyl Sulfoxide (DMSO) for 35 min at 20° C. in the dark. Hereafter, cells were washed four times and placed on the stage of an inverted Axiovert 100 TV microscope (Zeiss, Göttingen, Germany) equipped with an oil immersion UV objective (Zeiss Fluar 40×, 1.3 numerical aperture). […] Rmax was determined in situ using Fura-2 AM loaded cells in the presence of ionomycin (5 μM) and high extracellular calcium (10 mM). Values determined were: Rmax 9.0; Rmin 0.68; F380max/F380min 7.0. […]

[3] = target: NCAM on primary hippocampal neurons from rat embryos (rat) (UniProt P13596); experiment: cell-based or functional assay
[4] = NBP10d 1 μM, inhibitor concentration not given

## AKKMWKKTW [NBP10m, monomeric NBP10 peptide]
Hippocampal cells
  concentration at which cultures had no distinct cell aggregates: 200 µM
  concentration inducing formation of small but distinct aggregates: 60 µM
  effect on cell aggregation: inhibited cell aggregation
[1]
  shape of dose-response relationship for neurite outgrowth: bell shaped
  concentration of maximal effect on neurite outgrowth: ~100 µM
[1]; listed as monomer
  concentration of maximal effect on neurite outgrowth: 1.00 µM
[1]; dose-response, 24 h, plastic substratum
  effect on neurite outgrowth: stimulated neurite outgrowth

## C[S+]([O-])c1ccc(-c2nc(-c3ccncc3)c(-c3ccc(F)cc3)[nH]2)cc1 (stereo not shown) [SB203580]
[2]; NBP10d 1 μM, inhibitor 1 μM
  effect on NBP10-induced neurite outgrowth: partially inhibited

## AKKMWKKTW (listed as Rattus rattus) [NBP10]
PC12E2 cells
  effect on intracellular calcium: only a fraction of the cells showed detectable increases in intracellular calcium

## COc1cccc(-c2cc(=O)c3ccccc3o2)c1N [PD98059]
[2]; NBP10d 1 μM, inhibitor 10 μM
  effect on NBP10-induced neurite outgrowth: partially inhibited

## Cc1ccc(-c2nn(C(C)(C)C)c3ncnc(N)c23)cc1 [PP1]
[2]; [4]
  effect on NBP10-induced neurite outgrowth: partially inhibited

## CCN(CC)CCCCCCCCOC(=O)c1cc(OC)c(OC)c(OC)c1.Cl [TMB-8, 8-(N,N-diethylamino)octyl-3,4,5-trimethoxybenzoate hydrochloride]
[2]; [4]
  effect on NBP10-induced neurite outgrowth: complete inhibition

## ω-conotoxin MVIIA
[2]
  effect on NBP10-induced neurite outgrowth: partial inhibition

B1: NBP10 peptide dendrimer (four NBP10 monomers coupled to a lysine backbone) (peptide, part only)
chain: AKKMWKKTW
modifications: also: four monomers on lysine dendrimer backbone
[3]
  cell aggregation of hippocampal cells, concentration with effect: 1 µM and 2 µM
  neurite outgrowth of dissociated hippocampal neurons, concentration of maximal effect: 1 µM
[3]; scale: times lower concentration than the monomer
  cell aggregation, potency against the peptide monomer: 50
